In patent US10526343B2, “Heterocyclic systems and pharmaceutical applications thereof” (University of Sharjah, priority 2018, dated 2020):
Converted amounts (≈) assume the structure as drawn.

Tests used:
Type in all cases: cell-based
[1] = tested on: Staphylococcus aureus (ATCC 25923); assay: Cell viability assay (resazurin) screening for antibacterial activity; design: key: Positive: A positive result indicates antibacterial activity expressed as growth inhibition; Negative: a negative result indicates no antibacterial activity expressed as bacterial growth at the tested concentration; conditions: single high concentration of 1 mg/mL
[2] = tested on: Enterococcus faecalis (ATCC 29212); assay: as above; design: key: Positive: A positive result indicates antibacterial activity expressed as growth inhibition; Negative: a negative result indicates no antibacterial activity expressed as bacterial growth at the tested concentration; conditions: single high concentration of 1 mg/mL
[3] = tested on: Bacillus subtilis (environmental isolate); assay: as above; design: key: Positive: A positive result indicates antibacterial activity expressed as growth inhibition; Negative: a negative result indicates no antibacterial activity expressed as bacterial growth at the tested concentration; conditions: single high concentration of 1 mg/mL
[4] = tested on: Escherichia coli (ATCC 25922); assay: as above; design: key: Positive: A positive result indicates antibacterial activity expressed as growth inhibition; Negative: a negative result indicates no antibacterial activity expressed as bacterial growth at the tested concentration; conditions: single high concentration of 1 mg/mL
[5] = tested on: Pseudomonas aeruginosa (ATCC 27853); assay: as above; design: key: Positive: A positive result indicates antibacterial activity expressed as growth inhibition; Negative: a negative result indicates no antibacterial activity expressed as bacterial growth at the tested concentration; conditions: single high concentration of 1 mg/mL
S. aureus (ATCC 25923) = assay: MIC by broth microdilution; conditions: Staphylococcus aureus, ATCC25923
Protocol: (§1) Bacteria of the genus Staphylococcus were selected for MIC investigation due to its clinical importance. Compounds showing activity against S. aureus (ATCC 25923) were tested against 10 multidrug-resistant strains of Staphylococcus species, including: clinical isolates methicillin-resistant Staphylococcus aureus (MRSA) strains MRSA-1, MRSA-2, and MRSA-3, and environmental isolates S. saprophyticus (strains UDH-1, UDH-2, UDH-3 and UDH-4), S. haemolyticus (strains UDH-6 and UDH-7), and S. epidermidis strain UDH-5.
(§2) A broth microdilution method was used to measure MIC according to the Clinical and Laboratory Standards Institute guidelines. Two-fold serial dilutions of the test compound (8 concentrations ranged between 100-0.78 μg/mL) were tested. Two reference antibiotics were used as quality controls (ciprofloxacin and amikacin). In each experiment, solvent (DMSO) was used as a negative control, un-treated control (composing of bacteria in Mueller-Hinton broth) was used as a growth control, blank (culture media alone) was used as sterility control. The 96-well microplate with the test compounds was incubated for 20 hours at 37° C. Turbidity in wells indicated bacterial growth. […] For the definite determination of MIC, CellTiter-Blue® Cell Viability Assay (Promega, USA) was used (as above). The MIC was defined as the lowest compound concentration that prevented the color change of the Cell Viability solution (absence of bacterial growth; thus, suspension remained blue in color). For the definite determination of MIC, CellTiter-Blue® Cell Viability Assay (Promega, USA) was used (as above). To each well of the 96-well microplate, 20 μL of the Cell Viability Assay solution was added to the overnight (20 hours culture) and incubated at 37° C. for 4 hours. After the end of the incubation, pink and blue colors were used to differentiate viable from dead bacterial suspensions, respectively. The MIC was defined as the lowest compound concentration that prevented the color change.

[6] = tested on: MRSA-1 (clinical isolate, methicillin-resistant Staphylococcus aureus); assay: MIC by broth microdilution; conditions: Staphylococcus aureus, MRSA; clinical isolate
Protocol: (§3) Bacteria of the genus Staphylococcus were selected for MIC investigation due to its clinical importance.
as §2, with “Two reference antibiotics were used as quality controls (ciprofloxacin and amikacin).” left out

[7] = tested on: MRSA-2 (clinical isolate, methicillin-resistant Staphylococcus aureus); assay: MIC by broth microdilution
Protocol: as §3
as §2, with “Two reference antibiotics were used as quality controls (ciprofloxacin and amikacin).” left out

[8] = tested on: MRSA-3 (clinical isolate, methicillin-resistant Staphylococcus aureus); assay: MIC by broth microdilution
Protocol: as §3
as §2, with “Two reference antibiotics were used as quality controls (ciprofloxacin and amikacin).” left out

[9] = tested on: UDH-1 (environmental isolate, S. saprophyticus); assay: MIC by broth microdilution; conditions: for MIC: Staphylococcus saprophyticus, environmental isolate; for times lower than MIC of ciprofloxacin: UDH-1
Protocol: as §1
(§4) All these strains were resistant to at least three antibiotics from different classes, as confirmed by a disk diffusion assay.
as §2

[10] = tested on: UDH-2 (environmental isolate, S. saprophyticus); assay: MIC by broth microdilution; conditions: Staphylococcus saprophyticus
Protocol: as §1, §4, §2

[11] = tested on: UDH-3 (environmental isolate, S. saprophyticus); assay: MIC by broth microdilution; conditions: Staphylococcus saprophyticus; environmental isolate
Protocol: as §1, §4, §2

[12] = tested on: UDH-4 (environmental isolate, S. saprophyticus); assay: MIC by broth microdilution; conditions: Staphylococcus saprophyticus
Protocol: as §1, §4, §2

[13] = tested on: UDH-5 (environmental isolate, S. epidermidis); assay: MIC by broth microdilution; conditions: Staphylococcus epidermidis
Protocol: as §1, §4, §2

[14] = tested on: UDH-6 (environmental isolate, S. haemolyticus); assay: MIC by broth microdilution; conditions: Staphylococcus haemolyticus; environmental isolate
Protocol: as §1, §4, §2

[15] = tested on: UDH-7 (environmental isolate, S. haemolyticus); assay: MIC by broth microdilution; conditions: Staphylococcus haemolyticus; environmental isolate
Protocol: as §1, §4, §2

Row | MIC (S. aureus (ATCC 25923)) [µg/mL] | MIC [6] [µg/mL] | MIC [7] [µg/mL] | MIC [8] [µg/mL] | MIC [9] [µg/mL] | MIC [10] [µg/mL] | MIC [11] [µg/mL] | MIC [12] [µg/mL] | MIC [13] [µg/mL] | times lower than MIC of ciprofloxacin [9] | SMILES | antibacterial activity, Staphylococcus aureus [1] | antibacterial activity, Enterococcus faecalis [2] | antibacterial activity, Bacillus subtilis [3] | antibacterial activity, Escherichia coli [4] | antibacterial activity, Pseudomonas aeruginosa [5] | MIC [14] [µg/mL] | MIC [15] [µg/mL]
1 | 12.5 | 12.5 | 12.5 | 12.5 | 12.5 | 25 | 12.5 | 25 | 6.25 |  | COC(=O)CC1COc2c(cc3c4c2CCCN4CCC3)-c2c(NC(C)(C)C)n3c4ccc(Br)cc4sc3[n+]21 (centres unmarked) [Compound 1v] | Positive | Positive | Positive | Negative | Negative | 50 | 50
2 | 6.25 | 6.25 | 6.25 | 6.25 | 12.5 | 25 | 12.5 | 6.25 | 3.12 |  | COC(=O)CC1COc2c(cc3c4c2CCCN4CCC3)-c2c(NC(C)(C)C)n3c(-c4ccc(F)c(F)c4)csc3[n+]21 (centres unmarked) [Compound 1s] | Positive | Positive | Positive | Negative | Negative | 25 | 25
3 | 12.5 | 12.5 | 12.5 | 12.5 | 12.5 | 12.5 | 25 | 12.5 | 6.25 |  | COC(=O)CC1COc2c(cc3c4c2CCCN4CCC3)-c2c(N)n3c(-c4ccc(F)cc4)c(C)sc3[n+]21 (centres unmarked) [Compound 2b] | Positive | Positive | Positive | Negative | Negative | 25 | 25
4 | 3.12 | 6.25 | 6.25 | 6.25 | 6.25 | 6.25 | 12.5 | 3.12 | 3.12 | approximately 10 times | COC(=O)CC1COc2c(cc3c4c2CCCN4CCC3)-c2c(NC(C)(C)C)n3c(-c4ccc(Br)cc4)csc3[n+]21 (centres unmarked) [Compound 1q] | Positive | Positive | Positive | Negative | Negative | 12.5 | 12.5
5 | 3.12 | 6.25 | 6.25 | 6.25 | 6.25 | 6.25 | 6.25 | 3.12 | 1.56 | approximately 10 times | COC(=O)CC1COc2c(cc3c4c2CCCN4CCC3)-c2c(NC(C)(C)C)n3c(-c4ccc(Cl)cc4Cl)c(C)sc3[n+]21 (centres unmarked) [Compound 1x] | Positive | Positive | Positive |  | Negative | 6.25 | 12.5
6 | 4 (≈ 6.83 µM) | 16 (≈ 27.3 µM) | 8 (≈ 13.7 µM) | 2 (≈ 3.42 µM) | 8 (≈ 13.7 µM) | 0.25 (≈ 0.427 µM) | 0.5 (≈ 0.854 µM) | < 0.25 | < 0.25 |  | NCC[C@H](O)C(=O)N[C@@H]1C[C@H](N)[C@@H](O[C@H]2O[C@H](CN)[C@@H](O)[C@H](O)[C@H]2O)[C@H](O)[C@H]1O[C@H]1O[C@H](CO)[C@@H](O)[C@H](N)[C@H]1O [Amikacin, amikacin, reference compound] |  |  |  |  |  | 4 (≈ 6.83 µM) | 4 (≈ 6.83 µM)
